Laboratory results: a melting point compilation (Tetko et al.; mined from patent text by program, amines drawn as free bases though some values may be those of a salt)
Residues, ends and D or L forms follow the SMILES beside them. *: point of attachment. Boc = CC(C)(C)OC(=O)*; Bn = c1ccc(C*)cc1

First: Cc1cc(C)c(-n2ccc3c(=O)[nH][nH]c(=O)c32)c(C)c1
Second: CN1C(=O)Cn2cc(C(=O)NCc3ccc(F)cc3)c(=O)c3cc(CN4CCOCC4)cc1c32
The melting point of the first is higher: > 300 °C for the first, 222 to 224 °C for the second.

First: O=C(NC1(Cc2ccccc2)CCN(Cc2ccccc2)CC1)N1CCCC1
Second: CN1CCN(Cc2ccc3c(=O)n(CCCCN4CC=C(c5ccccc5)CC4)c(=O)[nH]c3c2)CC1
The melting point of the first is lower: 126 °C for the first, 167 to 168 °C for the second.

Compared with `COc1ccc(CN(C)CCCc2ccc(NC(=O)c3cccc4c(=O)c5cccc(F)c5[nH]c34)c(C)c2)cc1OC`, `CCCCNC(=O)Cc1ccc2c(c1)c(Cc1ccc(C(=O)NS(=O)(=O)c3ccccc3C)cc1OC)cn2C` is lower in melting point: 132 °C for the first, 108 to 110 °C for the second.

First: CC(=O)c1cccnc1CN1C(=O)C(NC(=O)Nc2cccc(C)c2)N=C(c2ccccc2F)c2ccccc21 (racemic)
Second: CCOc1nc2cccc(C(=O)O)c2n1Cc1ccc(-c2ccccc2C(=O)O)cc1
The melting point of the first is higher: 218 to 222 °C for the first, 213 to 215 °C for the second.

First: O=C(c1ccc(OCCN2CCCC2)cc1)c1c(-c2ccc(Cl)cc2)sc2ccccc12
Second: COC(=O)C(=O)c1ccc(OCCCNC(=O)c2ccc3ccccc3c2)cc1
The melting point of the first is lower: 97 to 98 °C for the first, 143 to 144 °C for the second.

Compared with `NC(=S)c1cc(Cl)c(Cl)c(Cl)n1`, `CCc1nc(Cl)c2sccc2n1` is lower in melting point: 168 to 169 °C for the first, 46 to 48 °C for the second.

First: CS(=O)(=O)c1ccc(-c2cnn(C=C(F)C(F)(F)C(F)(F)F)c(=O)c2-c2ccc(F)cc2)cc1
Second: CS(=O)(=O)c1ccc(-c2nn(CCc3ccccc3)c(C(F)(F)F)c2-c2ccc(F)cc2)cc1
The melting point of the first is higher: 167 to 169 °C for the first, 132 to 135 °C for the second.

Compared with `COc1ccc(N2CCN(c3c(C)c(C)c4c(c3C)C(O)(c3cccc(C)c3)C(C)(C)O4)CC2)cc1` (stereo not given), `COc1nc2ccccc2nc1NC(=O)N1CCN(c2ccc(C(C)=O)cc2)CC1` is higher in melting point: 122 to 125 °C for the first, 198 to 200 °C for the second.

Compared with `BrCCCc1ccc(C=Cc2cc3ccccc3s2)s1`, `COc1cc(CCCOS(C)(=O)=O)ccc1OCc1coc(/C=C/c2ccccc2)n1` is higher in melting point: 109 to 111 °C for the first, 130 to 131 °C for the second.

First: NNc1nccc(-c2ccccc2)n1
Second: CN(C)c1ccc2nc(-c3ccccc3)oc2n1
The melting point of the first is lower: 116 to 118 °C for the first, 127 to 129 °C for the second.

First: CCCS(=O)(=O)Nc1c(C)cc(OC(=O)NC)cc1C
Second: CCOC(=O)C(C)(C)S(=O)(=O)c1ccc(OC)cc1
The melting point of the first is lower: 173 to 176 °C for the first, 196 °C for the second.

First: COc1cc2c(cc1OC)CN(c1nc(N)c3cc(OC)c(OC)cc3n1)CCC2
Second: COc1cc2ncnc(N3CCN(C(=O)NCCc4ccc(Br)cc4)CC3)c2cc1OC
The melting point of the first is lower: 122 to 124 °C for the first, 174 to 175 °C for the second.

First: CC1(c2ccccc2)SC(=S)N(Nc2ccccc2)C1=N (stereo not given)
Second: O=C1CC(c2ccccc2)(c2ccncc2)Oc2ccccc21 (stereo not given)
The melting point of the first is lower: 118 to 119 °C for the first, 123 to 130 °C for the second.

First: NC12CC3CC(C1)CC(O)(C3)C2
Second: O=C(NCCO)C1CCNCC1
The melting point of the first is higher: 260 to 264 °C for the first, 107 to 108 °C for the second.

Compared with `c1ccc(Nc2ccc(Cc3ccc(Nc4ccccc4)c4ccccc34)c3ccccc23)cc1`, `O=C1CCC(c2ccccc2)=NN1c1cc(-c2ccnc(Nc3cccc(Cl)c3)n2)ccn1` is lower in melting point: 154 to 157 °C for the first, 144 to 146 °C for the second.

First: CCOC(=O)C(=O)c1scc(Br)c1Br
Second: CCOC(=O)C(O)c1cc(F)cc2cccnc12 (stereo not given)
The melting point of the first is lower: 71 °C for the first, 84 to 87 °C for the second.

Compared with `Cc1ccc(Cl)c(Nc2ccccc2-c2n[nH]c(=S)s2)c1Cl`, `CC(C)OC(=O)C=C1CN=C(c2ccccc2F)c2cc(Cl)ccc2N1` is lower in melting point: 250 to 252 °C for the first, 144 to 145 °C for the second.

First: Cc1[nH]c(C(C)(C)C)nc1CO
Second: COC1CCN(c2cccc(-c3cnc4[nH]cc(C(=O)C(C)(C)C)c4n3)c2)C1 (stereo not given)
The melting point of the first is higher: 196 °C for the first, 194 to 195 °C for the second.

First: CCOC(=O)c1cc(F)cnc1NCc1ccc(OC)cc1
Second: CC(=O)Nc1ccc(F)cc1OCCOc1ccc(N)cc1F
The melting point of the first is lower: 90 °C for the first, 134 to 136 °C for the second.

Compared with `O=C(C=Cc1ccc(O)cc1)N1CCc2c([nH]c3ccccc23)C1c1ccc2c(c1)CCO2` (stereo not given), `CCOc1ccccc1Sc1ccc(/C=C/C(=O)N2CCCC(C(=O)O)C2)cc1Cl` (stereo not given) is lower in melting point: 189 °C for the first, 166 to 171 °C for the second.

Compared with `CCOC(=O)C=Cc1ccc(OCc2csc(-c3ccccc3)n2)c(OC)c1`, `CCOC(=O)/C=C/c1cn(-c2ccccc2)nc1OCc1ccccc1` is higher in melting point: 92 to 93 °C for the first, 105 to 106 °C for the second.

First: COc1cc(OC)nc(C2(O)OC(=O)c3c(Cl)cccc32)n1 (stereo not given)
Second: COc1ccc(Cl)cc1-c1c(N)c(=O)[nH]c2cc(Cl)c(Cl)cc12
The melting point of the first is lower: 188 to 190 °C for the first, > 300 °C for the second.

First: COC(=O)C(=NO)C(=O)N1CCC(c2ccc(OC)c(OC3CCCC3)c2)CC1
Second: COc1cc2c(c(Cl)c1Cl)SC(C1CCCC1)C2O (stereo not given)
The melting point of the first is higher: 159 to 160 °C for the first, 129 to 132 °C for the second.

Compared with `CCN(CC)c1ccc(N(Cc2ccc(N)c(OC)c2)C(N)=O)c(C)c1`, `COC(=O)c1ccc(-c2ccc(Cl)cc2)[nH]1` is higher in melting point: 110 to 115 °C for the first, 177 to 179 °C for the second.

Compared with `CC(CCCO)C1CCC2C3C(OCc4ccccc4)CC4CC(OC5CCCCO5)CCC4(C)C3CCC12C` (stereo not given), `CCOC(=O)CC[C@H](NC(=O)OCc1ccccc1)C(=O)O` is higher in melting point: 52 to 55 °C for the first, 82 to 84 °C for the second.

Compared with `COCc1nccc(=O)[nH]1`, `CSc1ccc2[nH]c(C(=O)O)cc(=O)c2c1` is higher in melting point: 125 to 127 °C for the first, 256 to 257 °C for the second.

First: Cc1cccc(NC(=O)NC(CCC(=O)O)C(=O)N(CC(=O)OC(C)(C)C)c2ccccc2)c1 (racemic)
Second: CC(NC(=O)C(Cc1ccc(OCc2ccccc2)cc1)NC(=O)OC(C)(C)C)C(=O)NCC(=O)O (stereo not drawn) (Boc-Tyr(Bn)-Ala-Gly-OH; configuration not given here)
The melting point of the first is higher: 191 °C for the first, 104 to 107 °C for the second.

Compared with `CC(C)(C)Oc1ccc(I)cc1`, `CC(C)(C)ON=C1CC(c2ccc(S(C)(=O)=O)cc2)=C1c1ccccc1` is higher in melting point: 40 to 41.5 °C for the first, 150 to 152 °C for the second.

First: O=C1CCC2(CCC(=O)c3ccccc32)C(=O)N1 (stereo not given)
Second: CC1(c2ccccc2)CCC(=O)CC1
The melting point of the first is higher: 197 to 199 °C for the first, 48 to 50 °C for the second.

Compared with `O=C(O)c1cc(O)c2c(c1)C(=O)c1ccc(F)c(O)c1C2=O`, `CC1=C(CC(=O)O)c2cc(F)c(F)cc2C1=Cc1ccc(S(C)=O)cc1` (stereo not given) is lower in melting point: > 275 °C for the first, 200 to 210 °C for the second.

First: Cc1noc(NS(=O)(=O)c2ccc(Cl)c(Cl)c2)c1Br
Second: Cn1c(Cl)c(C=O)c2cccc(Cl)c21
The melting point of the first is lower: 144 to 146 °C for the first, 185 to 187 °C for the second.

Compared with `Cc1nc(-c2ccc([N+](=O)[O-])cc2)sc1C(=O)O`, `CC(=O)N1CCc2ccc(Cl)cc2C(c2ccc([N+](=O)[O-])cc2)=N1` is lower in melting point: 252 to 253 °C for the first, 227 to 229 °C for the second.

First: c1cc(CC[C@H]2CNCCN2)co1
Second: O=C1NC(N2CCN(c3cnc(Cl)cn3)CC2)c2ccccc21 (stereo not given)
The melting point of the first is lower: 112 to 114 °C for the first, 263 to 266 °C for the second.

First: CCCCCCCC(=O)OCc1ccccc1-c1nc(-c2cccc(OCC)c2)n[nH]1
Second: CCCCCCCCCCOc1cnc(-c2ccc(CCCCCC(C)O)cc2)nc1 (stereo not given)
The melting point of the first is higher: 87 to 89 °C for the first, 78 to 79 °C for the second.

Compared with `NC(=O)c1ccc(F)c2c1CC(NCCCc1c[nH]c3ccc(Cl)cc13)CO2` (stereo not given), `NC(=O)c1cc(-c2ccc(OC(F)(F)F)cc2)c2c3c(ccc2c1)OCO3` is lower in melting point: 218 to 221 °C for the first, 188 to 190 °C for the second.

First: COc1cc(COc2nn(-c3ccccc3)cc2C(C[N+](=O)[O-])C[N+](=O)[O-])ccc1OCc1nc(-c2ccco2)oc1C
Second: CCc1ccccc1-c1cn(C)cc(-c2cccc(C(F)(F)F)c2)c1=O
The melting point of the first is higher: 126 to 127 °C for the first, 123 to 125 °C for the second.

First: c1ccc(COc2ccc([C@H]3CO3)cc2)cc1
Second: Cc1ncc(CS)c2c1OC(c1ccccc1)OC2 (stereo not given)
The melting point of the first is lower: 56 to 61 °C for the first, 110 to 112 °C for the second.

First: Cc1ccc(C2=C(c3ccc(C)cc3)C(c3ccc(C)cc3)=C(c3ccc(C)cc3)C2=O)cc1
Second: Cc1ccc(CCN2CCC[C@H](C(C#N)(c3ccccc3)c3ccccc3)C2)cc1
The melting point of the first is higher: 244 to 245 °C for the first, 110 to 113 °C for the second.

Compared with `COc1ncc(-c2ccccc2)c(C(=O)N(C)Cc2cc(C(F)(F)F)cc(C(F)(F)F)c2)n1`, `O=S(=O)(c1cccnc1)N1CCC(Nc2nc(Nc3cccc(C(F)(F)F)c3)nc(OCC(F)(F)F)n2)CC1` is higher in melting point: 97.5 to 98.5 °C for the first, 222 to 224 °C for the second.

First: O=C(O)CCCCCCCCCCCCCCCCCCCN1C(=O)C=CC1=O
Second: CCCCCCCCCCCCCCCCCCNC(=O)NCCSc1ccc(O)cc1
The melting point of the first is lower: 104 to 106 °C for the first, 121 °C for the second.

First: CCCCCCCCCCCCCCCCCCOc1ccc(OCCCc2ccccc2)c(C(=O)N(CC(=O)O)CC(=O)O)c1
Second: CCCCCCCCCCCCCCCC(=O)OCC1OC(n2cc(C)c(=O)[nH]c2=O)CC1F (stereo not given)
The melting point of the first is higher: 101 to 102 °C for the first, 65 to 66 °C for the second.

First: CN(C)CCNC(=O)c1ccc(-c2ccc3nnn(Cc4ccc5ncccc5c4)c3n2)cc1F
Second: CC(C)(O)c1cnn2c(-c3ccc(F)c(-c4cccnc4)c3)cnc2n1
The melting point of the first is lower: 122 to 125 °C for the first, 199 to 200 °C for the second.

Compared with `Cc1c(N)cc([N+](=O)[O-])c(N)c1C`, `CNC(=O)c1ccccc1Sc1ccc(C)cc1[N+](=O)[O-]` is lower in melting point: 159 °C for the first, 122 to 123 °C for the second.

Compared with `CC(C)c1c(O)ccc2cnc(Nc3ccccc3)nc12`, `CC(C)n1nc(-c2c(NCC(N)=O)nc(N)nc2-c2ccccc2)ccc1=O` is higher in melting point: 103 to 104 °C for the first, 235 to 238 °C for the second.

Compared with `CCCCCCCCCCCC(=O)N(CCO)CCNCCO`, `CC(C)(C)OC(=O)NC[C@H]1CC[C@H](CO)CC1` is lower in melting point: 94 °C for the first, 88 to 89 °C for the second.

First: CC(C)n1cnc2c(NCc3ccccc3)nc(NCCCO)nc21
Second: C(#Cc1cnc(-c2cccs2)s1)c1ccccc1
The melting point of the first is higher: 98 to 101 °C for the first, 94 to 96 °C for the second.

First: OCCc1cc(-c2ccc(Cl)cc2)no1
Second: Oc1cccc2c1Oc1ccccc1C21CCN(CC=CCl)CC1
The melting point of the first is lower: 65.5 to 67.5 °C for the first, 153 to 155 °C for the second.

Going from `Fc1cc(F)c(-c2c(F)nc3ncncc3c2F)c(F)c1` to `Cc1cc2nnn(C(=O)N3CCOCC3)c2cc1C`, the melting point falls from 248 °C to 191 °C.

Compared with `C[C@@H]1C(=O)C[C@H]2C[C@@H]1OO[C@@]2(C)/C=C\c1ccc(F)cc1`, `O=C(Nc1cccc2c1C1CCCCN1C2=O)Nc1ncccc1Br` (stereo not given) is higher in melting point: 84 °C for the first, 220 °C for the second.

Compared with `CC1(C)SC(=NO)NC1=O`, `CC(=O)OCC1OC(n2cc(SC#N)c(=O)[nH]c2=O)CC1(O)C(C)=O` (stereo not given) is lower in melting point: 198 to 200 °C for the first, 106 to 108 °C for the second.
